According to the supplement of paper PMC7021759:
± gives the standard deviation of the averaged measurements.

Test system: SK-N-MM (SKNMM-MYCN, doxycycline-inducible MYCN)
Assay: area under dose-response curve (CellTiter-Glo viability normalised to plate controls) (AUC (arbitrary units)); higher = more loss of viability; extreme values may be limits of the assay
In short: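 SK-N-MM cells carrying doxycycline-inducible MYCN were seeded in 96-well plates at 1250 cells/100 μL, and about 24 h later they received medium with or without doxycycline. Two days after that, 10-point 1:3 dilution series of compounds were added by pin transfer (890-fold dilution of stock), with a second dose on day 4. CellTiter-Glo luminescence was measured 3 or 8 days after drugging. Log2 signals were scaled against the positive and negative controls on each plate and used to calculate the area under the dose-response curve.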

[1] = MYCN induction (doxycycline): +doxycycline (MYCN induced), time after drugging: 3 days
[2] = MYCN induction (doxycycline): +doxycycline (MYCN induced), time after drugging: 8 days
[3] = MYCN induction (doxycycline): no doxycycline (MYCN not induced), time after drugging: 3 days
[4] = MYCN induction (doxycycline): no doxycycline (MYCN not induced), time after drugging: 8 days

SMILES | area under dose-response curve [1] | area under dose-response curve [2] | area under dose-response curve [3] | area under dose-response curve [4]
Cn1cnc2c(F)c(Nc3ccc(Br)cc3F)c(C(=O)NOCCO)cc21 [BINIMETINIB] | 0 | 0 | 17.9 | 56.9
Cc1cnc(CNC(=O)c2c(=O)c3ccc(N4CCCN(C)CC4)nc3n3c2sc2ccccc23)cn1 [CX-5461] | – | 11.3 | 11.7 | –
CCc1nc(N)nc(N)c1-c1ccc(Cl)cc1 [PYRIMETHAMINE] | 13.5 | 65.7 | 5.97 | 22.1
O=C(CCCCCCNC(=O)c1cnc(N(c2ccccc2)c2ccccc2)nc1)NO [ROCILINOSTAT] | 43.9 | 94.7 | 20.4 | 76.4
CCOC(=O)CCNc1cc(N2CCc3ccccc3CC2)nc(-c2ccccn2)n1 [GSK-J4] | 0.00103 | 188 | 61.4 | 150
CC[C@]1(O)C[C@@H]2CN(CCc3c([nH]c4ccccc34)[C@@](C(=O)OC)(c3cc4c(cc3OC)N(C)[C@H]3[C@@](O)(C(=O)OC)[C@H](OC(C)=O)[C@]5(CC)C=CCN6CC[C@]43[C@@H]65)C2)C1 [VINBLASTINE] | 190 | 284 | 98.1 | 177
COC1=CC(c2cc3ccccc3[nH]2)=N/C1=C\c1[nH]c(C)cc1C [OBATOCLAX] | 195 | 255 | 178 | 229
Cn1cnc2c(F)c(Nc3ccc(Br)cc3Cl)c(C(=O)NOCCO)cc21 [SELUMETINIB] | 0 | 0 | 0.45 | 18.9
CC1CS(=O)(=O)CCN1/N=C/c1ccc([N+](=O)[O-])o1 (stereo unspecified) [NIFURTIMOX] | 3.58 | 0 | 0 | 0.144
CCN(CC)CCNC(=O)c1c(C)[nH]c(/C=C2\C(=O)Nc3ccc(F)cc32)c1C [SUNITINIB] | 3.49 | 132 | 3.64 | 140
Cn1nnc2c(C(N)=O)ncn2c1=O [TEMOZOLOMIDE] | 0 | 0 | 0 | –
Cc1cnc(Nc2ccc(OCCN3CCCC3)cc2)nc1Nc1cccc(S(=O)(=O)NC(C)(C)C)c1 [FEDRATINIB] | 109 | 176 | 102 | 151
CC[C@@H]1C(=O)N(C)c2cnc(Nc3ccc(C(=O)N[C@H]4CC[C@H](N5CCN(CC6CC6)CC5)CC4)cc3OC)nc2N1C(C)C [VOLASERTIB] | 87.9 | 138 | – | 75.2
N[C@H](CCC(=O)N[C@@H](Cc1c[nH]c2ccccc12)C(=O)O)C(=O)O [GOLOTIMOD] | – | 0 | 0 | 12.7
CCOc1cc(C(C)(C)C)ccc1C1=N[C@@](C)(c2ccc(Cl)cc2)[C@@](C)(c2ccc(Cl)cc2)N1C(=O)N1CCN(CCCS(C)(=O)=O)CC1 [RG7112] | 0 | 0 | 0 | 0
CC1=C(CC(=O)O)c2cc(F)ccc2/C1=C\c1ccc([S+](C)[O-])cc1 (stereo unspecified) [SULINDAC] | – | 0 | 0 | 0
Cc1c2oc3c(C)ccc(C(=O)N[C@@H]4C(=O)N[C@H](C(C)C)C(=O)N5CCC[C@H]5C(=O)N(C)CC(=O)N(C)[C@@H](C(C)C)C(=O)O[C@@H]4C)c3nc-2c(C(=O)N[C@@H]2C(=O)N[C@H](C(C)C)C(=O)N3CCC[C@H]3C(=O)N(C)CC(=O)N(C)[C@@H](C(C)C)C(=O)O[C@@H]2C)c(N)c1=O [DACTINOMYCIN] | 140 | 282 | 91.4 | 210
O=C(NOC[C@H](O)CO)c1ccc(F)c(F)c1Nc1ccc(I)cc1F | 28.9 | 92.1 | 21.5 | 84.4
Nc1nc(Cl)nc2c1ncn2[C@H]1C[C@H](O)[C@@H](CO)O1 [CLADRIBINE] | 51.7 | 225 | 35.7 | 110
Cc1[nH]c2ccccc2c1CCNCc1ccc(/C=C/C(=O)NO)cc1 [PANOBINOSTAT] | 171 ± 12 | 306 ± 5.3 | 114 ± 27 | 287 ± 4.4
Nc1nc2[nH]cc(CCc3ccc(C(=O)N[C@@H](CCC(=O)O)C(=O)O)cc3)c2c(=O)[nH]1 [PEMETREXED] | 6.04 | 112 | 0 | 58.3
CN(C)CCCNc1c2ccccc2nc2c1[nH]c1ccccc12 [SYUIQ-5] | 219 | 262 | 196 | 225
Cc1ccc(Nc2nccc(N(C)c3ccc4c(C)n(C)nc4c3)n2)cc1S(N)(=O)=O [PAZOPANIB] | 21.1 | 40.1 | 18.1 | 29.2
Cc1nc(-c2cn3c(n2)-c2ccc(-c4cnn(C(C)(C)C(N)=O)c4)cc2OCC3)n(C(C)C)n1 [TASELISIB] | 23.1 | 34.9 | 34.6 | 39
CCc1ccc(CCOc2ccc(CC3SC(=O)NC3=O)cc2)nc1 (stereo unspecified) [PIOGLITAZONE] | 0 | 0 | 0 | 0
CCC(=O)OCN1C(=O)C=CC1=O [MIRA-1] | – | – | – | 39
Nc1ncn([C@@H]2O[C@H](CO)[C@@H](O)[C@H]2O)c(=O)n1 [5-AZACYTIDINE] | 33.8 | 58.3 | 21.5 | 23.6
CN(C)c1ccc2nc3ccc(=[N+](C)C)cc-3sc2c1 [METHYLENE BLUE] | 48.8 | 152 | 45.6 | 75.9
O=C(O)CCCc1ccc(N(CCCl)CCCl)cc1 [CHLORAMBUCIL] | 0.922 | 0 | 0.476 | 2.34
COc1cc2ncnc(Nc3ccc(F)c(Cl)c3)c2cc1OCCCN1CCOCC1 [GEFITINIB] | 80.1 | 0 | 93.7 | 93.8
